In US20250327032A1, “AGENT FOR AVOIDING IMMUNE RESPONSE OF TRANSGENIC CELLS” (HYPERION DRUG DISCOVERY CO., LTD., priority 2021, published 2025):

How the values were obtained:
[1] = system: human mesenchymal stem cells; assay: Introduction of GFP mRNA by lipofection, yield of GFP-positive cells; format: cell-based; details: 10 pg/cell
Method: (§1) Human mesenchymal stem cells were seeded in a 6-well plate to be about 10,000 cells/cm^2. Human myoblasts were seeded in another 6-well plate to be about 20,000 cells/cm^2. As a culture solution, a basal medium for each cell supplemented with 0.1, 1, or 10 μM of JSH-23 was used. As a control, a basal medium for each cell supplemented with 0.1% (v/v) DMSO instead of JSH-23 was used as a culture solution.
(§2) A lipofection solution was prepared by adding Lipofectamine RNAiMAX and fluorescent protein GFP mRNA to OptiMEM. As the GFP mRNA, that containing uridine or that containing pseudouridine instead of uridine was used. In addition, for those containing pseudouridine, a basal medium for each cell supplemented with 1 μM of JSH-23 was used, and as a control, a basal medium for each cell supplemented with 0.1% (v/v) DMSO instead of JSH-23 was used as a culture solution. It was prepared so that the amount of mRNA was 10 pg/cell for human mesenchymal stem cells and 5 pg/cell for human myoblasts. The prepared lipofection solution was mixed well according to the manufacturer's recommended protocol and allowed to stand at room temperature for about 15 minutes.
(§3) Next, each lipofection solution was added to the plate seeded with human mesenchymal stem cells or human myoblasts, and cultured in a CO2 incubator at 37° C. for about 1 day (18 hours) (human mesenchymal stem cells) or for 2 days (42 hours) (human myoblasts). After culturing, all the culture solution comprising the lipofection solution was removed and replaced with a new culture solution having the same composition as before the addition of the lipofection solution.
(§4) After another 6 hours, the above lipofection solution was newly prepared, added again to the plate seeded with human mesenchymal stem cells or human myoblasts, and cultured in a CO2 incubator at 37° C. for about 1 day (18 hours) (mesenchymal stem cells) or about 2 days (42 hours) (human myoblasts). These steps were repeated so that the introduction of genes was performed a total of 4 times.
(§5) Twenty-four hours after the final introduction of genes, the cells were detached with a cell detachment solution, centrifuged at 600×g for 5 minutes using a centrifuge, to collect the cells. The collected cells were counted using a hemocytometer. Furthermore, the GFP-positive percentage of the collected cells was measured using a flow cytometer. The yield of the number of GFP-positive cells was calculated from the number of cells counted and the GFP-positive rate.
(§6) Human mesenchymal stem cells were seeded in a 6-well plate to be about 10,000 cells/cm^2. Human myoblasts were seeded in another 6-well plate to be about 20,000 cells/cm^2. As a culture solution, a basal medium for each cell supplemented with 1 μM of calcitriol was used. As a control, a basal medium for each cell supplemented with 0.1% (v/v) DMSO instead of calcitriol was used as a culture solution.
(§7) A lipofection solution was prepared by adding Lipofectamine RNAiMAX and fluorescent protein GFP mRNA to OptiMEM. As the GFP mRNA, that containing uridine, or that containing pseudouridine instead of uridine was used. It was prepared so that the amount of mRNA was 10 pg/cell for human mesenchymal stem cells and 5 pg/cell for human myoblasts. The prepared lipofection solution was mixed well according to the manufacturer's recommended protocol and allowed to stand at room temperature for about 15 minutes.

human myoblasts = assay: as above; format: cell-based; details: 5 pg/cell
Method: as §1, §2, §3, §4, §5, §6, §7

TNF-α = TNF-α expression level (qPCR) after introduction of GFP-tagged CAR-T plasmid; format: cell-based, human; details: Jurkat E6.1; JSH-23 0.1 μM; compared to CAR-T plasmid introduced without JSH-23
Method: Human leukemia T cells (Jurkat E6.1) were seeded in a 6-well plate to be about 10,000 cells/cm^2. As a culture solution, RPMI1640 medium comprising 10% bovine serum was used. To this, 0.1 μM of JSH-23 was added, or for comparison, 0.1% (v/v) DMSO instead of JSH-23 was added and used.
A lipofection solution was prepared by adding Lipofectamine 2000 and GFP-tagged CAR-T plasmid to OptiMEM. The amount of plasmid was prepared to be 1 pg/cell. The prepared lipofection solution was mixed well according to the manufacturer's recommended protocol and allowed to stand at room temperature for about 15 minutes.
Next, the lipofection solution was added to the plate seeded with human leukemia T cells, and cultured in a CO2 incubator at 37° C. for about 1 day (18 hours). After culturing, all the culture solution comprising the lipofection solution was removed and replaced with a new culture solution having the same composition as before the addition of the lipofection solution. […]
cDNA was synthesized from the purified RNA using SuperScript™ III Reverse Transcriptase according to the manufacturer's protocol. qPCR was performed using the synthesized cDNA and PCR primers as well as PowerTrack™ SYBR Green Master Mix. The measured Ct value of TNF-α was normalized with the Ct value of β-actin, a housekeeping gene.

IFN-α = IFN-α expression level (qPCR) after introduction of GFP-tagged CAR-T plasmid; format: cell-based, human; details: Jurkat E6.1; JSH-23 0.1 μM; compared to CAR-T plasmid introduced without JSH-23
[2] = GFP mRNA containing pseudouridine instead of uridine, JSH-23 1 μM

`Cc1ccc(NCCCc2ccccc2)c(N)c1` [JSH-23] was tested, and the “yield of GFP-positive cells compared to the control (control set to 1)” value [1, 2] was ≥ 7 times, the “yield of GFP-positive cells compared to the control (control set to 1)” value ([1]; GFP mRNA containing uridine, 4 introductions, JSH-23 0.1, 1 or 10 μM, maximal at 1 μM, control 0.1% DMSO) was ≥ 7 times and the “yield of GFP-positive cells compared to the control (control set to 1)” value (human myoblasts; [2]) was ≥ 2 times. The “yield of GFP-positive cells compared to the control (control set to 1)” value (human myoblasts; GFP mRNA containing uridine, JSH-23 0.1, 1 or 10 μM) was ≥ 3 times, the “increase in the expression level of TNF-α” value (TNF-α) was “reduced” and the “increase in the expression level of IFN-α” value (IFN-α) was “reduced”.
